Values joined by “and” are separate entries in the source; they are usually repeats but may differ in a detail not shown here. Identical values can stand only once. Like-named read-outs stand apart in the source and are kept apart here.
How the values were obtained:
[1] = system: PBMC from healthy HCMV seropositive donors; assay: IFN-γ ELISPOT assay; format: cell-based, human; details: peptide 10 μg/ml
How it was run: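 IFN-γ-secreting T cells were counted as spots, with no-peptide control wells subtracted and means taken from triplicate wells. These spots came from healthy seropositive carriers' PBMC, 2.5×10^5 per well.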

[2] = system: peptide-sensitized autologous PHA blasts or LCLs; format: cell-based, human; parameters: key to CTL response: Y: Yes; ND: Not detected
CD8+ T cells = assay: CD4+/CD8+ analysis of 20-mer peptides (intracellular IFN-γ staining or depletion ELISPOT); format: cell-based, human
Protocol: (§1) To determine whether a particular 20-mer peptide contained either a CD4^+- or CD8^+-restricted epitope, or both, CD4^+/CD8^+ cell depletion ELISPOT assays were performed on PBMC from healthy virus carriers. For any one experiment, three populations of cells were used: a) CD8^+-depleted PBMC, b) CD4^+-depleted PBMC, and c) non-depleted PBMC. These populations of cells were tested concurrently with the same peptides in a conventional ELISPOT assay as described herein above. DYNABEADS M-450 (Dynal, Oslo, Norway) that bound specifically to CD4^+- or CD8^+ cells were used to perform the depletion essentially according to manufacturers instructions. Beads were washed twice in cold PBS supplemented with 2% FCS using magnetic isolation. The requisite number of cells was resuspended in cold PBS supplemented with 2% FCS, added to the beads and then incubated at 4° C., in the dark, for 30 mins (CD8^+ beads) or 60 mins (CD4^+ beads). Populations were depleted of CD4^+ or CD8^+ cells using magnetic separation. After depletion, the non-attached cells were removed and washed once in growth medium, counted and used in conventional ELISPOT assay. Depleted cells were used at 1.7×10^5 cells per well and the non-depleted population was used at the standard 2.5×10^5 cells per well. After the depletion step, each respective cell population was assessed for the purity of CD4^+ and CD8^+ T cells by three-colour flow cytometry. Samples of depleted cell populations were stained with anti-CD3 antibody directly conjugated to fluorescein isothiocyanate (FITC), anti-CD4 antibody conjugated with phycoerythrin (PE) fluorochrome, and anti-CD8 antibody conjugated with Tricolor fluorochrome (described below). The percent of CD3^+/CD4^+ cells present within the CD8^+-depleted population and the percent of CD3^+/CD8^+ cells present within the CD4^+-depleted populations were assessed on FACSCalibur cytometer (Becton Dickinson). The purity of each population was greater than 90% and the results from the ELISPOT assays are expressed as the percentage of CD4+ or CD8^+ cells within the depleted populations that responded toward each peptide by producing IFN-γ.
(§2) PBMCs were incubated at 37° C. in RPMI+10% FCS with and without 10 μg/ml peptides for 6 hours. Golgiplug™ (Pharmingen, San Diego, Calif., USA) was added to the samples according to manufacturer's instructions during the second hour of incubation and cells activated with 25 ng/ml phorbol 12-myristidate 13-acetate (PMA; Sigma-Aldrich Co, St. Louis Mo.) and 1 μg/ml iomomycin (Sigma) acted as a positive control. Following the incubation, 1×10^6 cells/sample were washed and resuspended in staining buffer consisting of PBS with GolgiPlug™, 3% FCS and sodium azide. Cells were then stained with FITC conjugated anti-CD3-FITC (UCHT1, Immunotech, Marseille, France), and either Tricolor (TRI) conjugated anti-CD4 (S3.5, Caltag, Burlingame, Calif.) or anti-CD8 (3B5, Caltag) for 30 minutes, 4° C. in the dark. The cells were fixed for 20 min at 4° C. with Cytofix/Cytoperm™ (BD Biosciences) and resuspended in Perm/Wash™ permeabilization buffer (BD Biosciences) according to manufacturers protocol. Fixed cells were stained with phycoerythrin (PE) conjugated anti-human IFN-γ (B27, Pharmingen) for 30 min at 4° C. in the dark. As a negative control, cells were stained with appropriate isotype matched control antibodies. Cells were washed twice in permeabilization buffer and resuspended in staining buffer before analysis by three-colour flow cytometry on a FACSCalibur cytometer (BD Biosciences). All data analysis was carried out using FlowJo software (Tree Star, Inc. San Carlos, CA).
(§3) When using 20-mer peptides to map epitopes by ELISPOT, it is possible that some responses may be MHC class-II restricted, and not necessarily restricted through HLA class I alleles. It was evident throughout this study that some epitopes identified using ELISPOT could not be confirmed using cytotoxicity analysis. […]

CD4+ T cells = assay: as above; format: cell-based, human
Protocol: as §1, §2, §3

HLA A2 = target: T1, HLA A2 (Homo sapiens, UniProt P04439, D140Y/D185E/D98H/E176V/E277Q/G131W/G231S/I119V/I121R/I166T/I218V/L300P/L318F/N151K/N90K/P208A/P217A/Q86G/Q94H/R138H/R169H/T345S); format: cell-based; details: HLA A2 on T2 cells; relative increase in HLA expression vs no peptide at 26° C.
T1 construct: endogenous in cells; host or cells: T2 cells

[3] = overlapping 20mer peptides, Table 4

## ATVQGQNLKYQEFFWDANDI
[1]; donor epsilon
  ELISPOT Responses (SFC/10^6 PBMC): SC(687) SFC/10^6 PBMC
[1]; donor five
  ELISPOT Responses (SFC/10^6 PBMC): 226 SFC/10^6 PBMC
[1]; donor gamma
  ELISPOT Responses (SFC/10^6 PBMC): 202 SFC/10^6 PBMC
[1]; donor three
  ELISPOT Responses (SFC/10^6 PBMC): 189 SFC/10^6 PBMC
[1]; donor twelve
  ELISPOT Responses (SFC/10^6 PBMC): 25 SFC/10^6 PBMC
[2]; [3]
  CTL response: Y
CD8+ T cells; donor twelve
  Responding cells (% CD8): 0%
CD4+ T cells; donor twelve
  Responding cells (% CD4): 0.03%

## RQTEKHELLVLVKKAQLNRH
[1]; donor fourteen
  ELISPOT Responses (SFC/10^6 PBMC): RK(313) SFC/10^6 PBMC
[2]; [3]
  CTL response: Y
CD8+ T cells; donor fourteen
  Responding cells (% CD8): 0.57%
CD4+ T cells; donor fourteen
  Responding cells (% CD4): 1.52%

## CSPDEIMAYAQKIFKILDEE
[1]; donor five
  ELISPOT Responses (SFC/10^6 PBMC): CS(1532) SFC/10^6 PBMC
[2]
  CTL response: Y
CD8+ T cells; donor five
  Responding cells (% CD8): 0.4%
CD4+ T cells; donor five
  Responding cells (% CD4): 0.53%

## RSYAYIYTTYLLGSNTEYVA (human cytomegalovirus gB CTL epitope peptide)
[1]; donor fourteen
  ELISPOT Responses (SFC/10^6 PBMC): RK(170) SFC/10^6 PBMC
[2]; [3]
  CTL response: Y
CD8+ T cells; donor fourteen
  Responding cells (% CD8): 0.58%
CD4+ T cells; donor fourteen
  Responding cells (% CD4): 0.39%

## YPSAAERKHRHLPVADAVIH
[1]; donor delta
  ELISPOT Responses (SFC/10^6 PBMC): SE(350) SFC/10^6 PBMC
[2]; [3]
  CTL response: Y
CD8+ T cells; donor delta
  Responding cells (% CD8): 0.313%
CD4+ T cells; donor delta
  Responding cells (% CD4): 0%

## IIKPGKISHIMLDVAFTSHE
[1]; donor eight
  ELISPOT Responses (SFC/10^6 PBMC): JW(370) SFC/10^6 PBMC
[1]; donor epsilon
  ELISPOT Responses (SFC/10^6 PBMC): 691 SFC/10^6 PBMC
[1]; donor gamma
  ELISPOT Responses (SFC/10^6 PBMC): 177 SFC/10^6 PBMC
[1]; donor seven
  ELISPOT Responses (SFC/10^6 PBMC): SB(155), SFC/10^6 PBMC
[2]; [3]
  CTL response: Y
CD8+ T cells; donor eight
  Responding cells (% CD8): 0.05%
CD8+ T cells; donor seven
  Responding cells (% CD8): 0.03%
CD4+ T cells; donor eight
  Responding cells (% CD4): 0.04%
CD4+ T cells; donor seven
  Responding cells (% CD4): 0.02%

## QEFFWDANDIYRIFAELEGV
[1]; donor epsilon
  ELISPOT Responses (SFC/10^6 PBMC): SC(704) SFC/10^6 PBMC
[1]; donor five
  ELISPOT Responses (SFC/10^6 PBMC): CS(107) SFC/10^6 PBMC
[1]; donor gamma
  ELISPOT Responses (SFC/10^6 PBMC): 295 SFC/10^6 PBMC
[1]; donor twelve
  ELISPOT Responses (SFC/10^6 PBMC): 30 SFC/10^6 PBMC
[2]; [3]
  CTL response: Y

## SMMWMRFFV (human cytomegalovirus US2 CTL epitope peptide)
[1]; donor delta
  ELISPOT Responses (SFC/10^6 PBMC): SE(393) SFC/10^6 PBMC
HLA A2
  MSE (MHC stabilization efficiency): ++ (++ = 100-199%)
[2]; predicted epitopes, Table 3
  CTL response: Y

## MQLIPDDYSNTHSTRYVTVK (human cytomegalovirus gB CTL epitope peptide)
[1]; donor four
  ELISPOT Responses (SFC/10^6 PBMC): 238 SFC/10^6 PBMC and 302 SFC/10^6 PBMC
[1]; donor seven
  ELISPOT Responses (SFC/10^6 PBMC): SB(157) SFC/10^6 PBMC
[2]; [3]
  CTL response: Y
CD8+ T cells; donor four
  Responding cells (% CD8): 0.03%
CD4+ T cells; donor four
  Responding cells (% CD4): 0.06%

## TYEKYGNVSVFETSGGLVVF (human cytomegalovirus gB CTL epitope peptide)
[1]; donor delta
  ELISPOT Responses (SFC/10^6 PBMC): SE(75) SFC/10^6 PBMC
[2]; [3]
  CTL response: Y
CD8+ T cells; donor delta
  Responding cells (% CD8): 0.097%
CD4+ T cells; donor delta
  Responding cells (% CD4): 0%

## GQTEPIAFV (human cytomegalovirus pp150 CTL epitope peptide)
HLA A2
  MSE (MHC stabilization efficiency): + (+ = 51-99%)
[2]; donor seven, effector:target ratio 10:1
  CTL activity of polyclonal CTL line: lower CTL activity

## IIYTRNHEV (human cytomegalovirus IE2 CTL epitope peptide)
[1]; donor delta
  ELISPOT Responses (SFC/10^6 PBMC): SE(137) SFC/10^6 PBMC
[1]; donor fifteen
  ELISPOT Responses (SFC/10^6 PBMC): 80 SFC/10^6 PBMC
[1]; donor seven
  ELISPOT Responses (SFC/10^6 PBMC): 369 SFC/10^6 PBMC
HLA A2
  MSE (MHC stabilization efficiency): + (+ = 51-99%)
[2]
  peptide concentration required for half maximal lysis, fold more than NLVPMVATV and VLEETSVML epitopes respectively: 100-500 fold
[2]; predicted epitopes, Table 3
  CTL response: Y

— patent US7524503B2, “Human cytomegalovirus (HCMV) cytotoxic T cell epitopes, polyepitopes compositions comprising same and diagnostic and prophylactic and therapeutic uses therefor” (priority 2001, dated 2009)
